Laboratory results as given in patent US9155714B2, “Compositions comprising an aromatic alcohol and a TRPV-1 antagonist, and uses thereof” (JOHNSON & JOHNSON CONSUMER INC., priority 2013, dated 2015).
Where “and” joins values, the source holds several entries; their conditions need not be identical. Equal values may be shown once.

Experiments:
Assay in all cases: Calcium Flux Test, activity as TRPV-1 agonist
Type in all cases: cell-based
[1] = molecular target: T1, human vanilloid receptor-1 (TRPV-1) (Homo sapiens, UniProt Q8NER1)
T1 construct: host or cells: HEK293
T1 sequence (Q8NER1 whole entry): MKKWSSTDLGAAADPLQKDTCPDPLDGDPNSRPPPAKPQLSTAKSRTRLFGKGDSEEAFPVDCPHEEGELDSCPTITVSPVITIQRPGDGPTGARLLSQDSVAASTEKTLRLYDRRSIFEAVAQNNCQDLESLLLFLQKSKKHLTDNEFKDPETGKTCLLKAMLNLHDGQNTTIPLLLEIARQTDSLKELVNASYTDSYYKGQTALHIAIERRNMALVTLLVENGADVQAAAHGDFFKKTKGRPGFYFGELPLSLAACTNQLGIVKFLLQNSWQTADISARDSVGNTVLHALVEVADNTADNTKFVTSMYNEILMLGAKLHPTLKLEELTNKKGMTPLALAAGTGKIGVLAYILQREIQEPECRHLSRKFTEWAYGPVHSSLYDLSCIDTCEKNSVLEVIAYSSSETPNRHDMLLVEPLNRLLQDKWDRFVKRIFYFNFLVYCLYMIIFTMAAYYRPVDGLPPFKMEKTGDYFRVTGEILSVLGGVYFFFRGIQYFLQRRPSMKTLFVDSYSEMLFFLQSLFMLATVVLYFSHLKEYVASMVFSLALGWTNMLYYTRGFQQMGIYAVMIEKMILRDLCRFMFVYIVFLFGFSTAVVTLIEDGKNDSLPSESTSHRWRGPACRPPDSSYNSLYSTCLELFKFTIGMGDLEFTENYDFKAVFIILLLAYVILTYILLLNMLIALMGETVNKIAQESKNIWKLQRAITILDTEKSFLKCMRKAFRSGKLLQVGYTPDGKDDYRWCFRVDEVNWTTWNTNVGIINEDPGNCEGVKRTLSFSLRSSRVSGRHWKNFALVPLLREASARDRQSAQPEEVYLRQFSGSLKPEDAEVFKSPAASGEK
Experimental: (§1) The Calcium Flux Test is performed in the following manner: Recombinant HEK293 cells expressing human vanilloid receptor-1 (TRPV-1; accession number AF196175, EMD Millipore, Billerica, Mass.) are grown in D-MEM/F-12 media (Life Technologies, Grand Island, N.Y.) supplemented with 10% fetal bovine serum, 1% non essential amino acids and 400 μg/mL Geneticin (Gibco, Life Technologies). Cells are plated at a concentration of 15,000 cells per well on poly-D-lysine-coated 384 well plates and incubated overnight at 5% CO2 and 37° C. After incubation, culture media is removed from the wells and replaced with 50 μL per well of Fluo-8 No Wash dye solution (#36315, AAT Bioquest, Sunnyvale, Calif.). The Fluo-8 dye solution is prepared by mixing 20 uL of Fluo-8 NW with 30 mL of 0.33× Pluronic® F127 Plus (BASF of Ludwigshafen, Germany) in assay buffer (1×HBSS+2% of HEPES). Fluo-8 dye is incubated for 30 minutes at room temperature. Intracellular calcium (Ca^2+) flux is monitored upon exposure to aromatic alcohol in DMSO vehicle by measuring fluorescence intensity at Ex/Em 490/525 on a Functional Drug Screening System (FDSS; Hamamatsu, […]). Measurements are taken every second for a period of 4 minutes. […] Statistical differences are obtained using One Way ANOVA with Tukey Post-hoc test; statistical significance is defined as P≦0.05.
(§2) Phenoxyethanol was tested at a series of concentrations in DMSO for activity as a TRPV-1 agonist according to the Calcium Flux Test described above. Capsaicin was used as a positive control.
(§3) Maximum RFU values for treatment with phenoxyethanol or capsaisin were compared to the Maximum RFU for a DMSO vehicle alone. Concentrations of phenoxyethanol and capsaicin are reported in milimolar (mM) and nanomolar (nM), respectively.
(§4) Benzyl alcohol and sodium bicarbonate were tested using the Calcium Flux Test.
(§5) Benzyl alcohol and phenethyl alcohol were tested at a series of concentrations in DMSO for activity as a TRPV-1 agonist as described in Example 1. Concentrations of benzyl alcohol and phenethyl alcohol are reported in units of % w/v.

[2] = molecular target: T1, human vanilloid receptor-1 (TRPV-1); design: key: **: statistically significant; n/s: not statistically significant
Experimental: as §1, §2, §3, §4, §5

[3] = molecular target: T1, human vanilloid receptor-1 (TRPV-1); design: key: **: Statistically significant; n/s: Not statistically significant
Experimental: as §1, §2, §3, §4, §5

COc1cc(CNC(=O)CCCC/C=C/C(C)C)ccc1O [Capsaicin, capsaicin]
intracellular calcium flux in TRPV-1-transfected HEK cells (result in words) [1]: dose dependent increases
Maximum RFU (mean ± SD) ([1]; capsaicin 0.0381 nM alone): 10.19 ± 2.94 RFU
Maximum RFU (mean ± SD) ([1]; capsaicin 0.1526 nM alone): 29.34 ± 8.18 RFU
Maximum RFU (mean ± SD) ([1]; capsaicin 0.6104 nM alone): 121.32 ± 46.41 RFU
Maximum RFU (mean ± SD) ([1]; capsaicin 2 nM alone): 253.47 ± 24.63 RFU
Maximum RFU (mean ± SD) ([1]; capsaicin 10 nM alone): 348.17 ± 5.56 RFU
Maximum RFU (mean ± SD) ([1]; capsaicin 39 nM alone): 405.53 ± 11.25 RFU
Maximum RFU (mean ± SD) ([1]; capsaicin 100 nM alone (0 antagonist)): 647.05 ± 33.18 RFU and 849.62 ± 7.02 RFU and 1006.91 ± 74.51 RFU
Maximum RFU (mean ± SD) ([1]; capsaicin 156 nM alone): 491.07 ± 21.10 RFU
Maximum RFU (mean ± SD) ([1]; capsaicin 300 nM alone (0 nM antagonist)): 860.95 ± 33.14 RFU and 875.05 ± 55.11 RFU
Maximum RFU (mean ± SD) ([1]; capsaicin 625 nM alone): 604.13 ± 32.46 RFU
Maximum RFU (mean ± SD) ([1]; capsaicin 2500 nM alone): 617.87 ± 34.14 RFU
Maximum RFU (mean ± SD) ([1]; capsaicin 10000 nM alone): 698.83 ± 30.57 RFU
P < 0.05 Compared to Vehicle ([2]; capsaicin 0.0381 nM): n/s
P < 0.05 Compared to Vehicle ([2]; capsaicin 0.1526 nM): n/s
P < 0.05 Compared to Vehicle ([2]; capsaicin 0.6104 nM): **
P < 0.05 Compared to Vehicle ([2]; capsaicin 2 nM): **
P < 0.05 Compared to Vehicle ([2]; capsaicin 10 nM): **
P < 0.05 Compared to Vehicle ([2]; capsaicin 39 nM): **
P < 0.05 Compared to Vehicle ([2]; capsaicin 156 nM): **
P < 0.05 Compared to Vehicle ([2]; capsaicin 625 nM): **
P < 0.05 Compared to Vehicle ([2]; capsaicin 2500 nM): **
P < 0.05 Compared to Vehicle ([2]; capsaicin 10000 nM): **

O=C([O-])O.[Na+] [Sodium Bicarbonate, sodium bicarbonate]
intracellular calcium flux in TRPV-1-transfected HEK cells (result in words) [1]: do not Induce Calcium Flux
Maximum RFU (mean ± SD) ([1]; sodium bicarbonate 0.03125 mM): 109.99 ± 1.37 RFU
Maximum RFU (mean ± SD) ([1]; sodium bicarbonate 0.0625 mM): 102.15 ± 4.19 RFU
Maximum RFU (mean ± SD) ([1]; sodium bicarbonate 0.125 mM): 114.34 ± 6.46 RFU
Maximum RFU (mean ± SD) ([1]; sodium bicarbonate 0.25 mM): 124.90 ± 8.41 RFU
Maximum RFU (mean ± SD) ([1]; sodium bicarbonate 0.5 mM): 3.39 ± 2.66 RFU
P < 0.05 Compared to Vehicle ([3]; sodium bicarbonate 0.03125 mM): n/s
P < 0.05 Compared to Vehicle ([3]; sodium bicarbonate 0.0625 mM): n/s
P < 0.05 Compared to Vehicle ([3]; sodium bicarbonate 0.125 mM): n/s
P < 0.05 Compared to Vehicle ([3]; sodium bicarbonate 0.25 mM): **
P < 0.05 Compared to Vehicle ([3]; sodium bicarbonate 0.5 mM): n/s
